In PubChem BioAssay (NCI):
“And” between values parts separate entries of the source, which are not always exact repeats. Equal values may be shown once.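 48-hour exposure; five concentrations; linearly interpolated endpoints. GI50: concentration for 50% inhibition of growth. TGI marks complete inhibition of growth.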

Tests used:
Experiment in all cases: NCI anticancer screen, dose series, 48 h
OVCAR-4 ovarian = test system: OVCAR-4 ovarian
MOLT-4 leukemia = test system: MOLT-4 leukemia
HCC-2998 colon = test system: HCC-2998 colon
SNB-19 CNS = test system: SNB-19 CNS
MDA-MB-231 breast = test system: MDA-MB-231 breast
T-47D breast = test system: T-47D breast
786-0 renal = test system: 786-0 renal
UACC-62 melanoma = test system: UACC-62 melanoma
SR leukemia = test system: SR leukemia
HOP-62 NSCLC = test system: HOP-62 NSCLC

Row | Structure (SMILES) | GI50 (OVCAR-4 ovarian) | TGI (OVCAR-4 ovarian) | GI50 (MOLT-4 leukemia) | TGI (MOLT-4 leukemia) | GI50 (HCC-2998 colon) | TGI (HCC-2998 colon) | GI50 (SNB-19 CNS) | TGI (SNB-19 CNS) | GI50 (MDA-MB-231 breast) | TGI (MDA-MB-231 breast) | GI50 (T-47D breast) | TGI (T-47D breast) | GI50 (786-0 renal) | TGI (786-0 renal) | GI50 (UACC-62 melanoma) | TGI (UACC-62 melanoma) | GI50 (SR leukemia) | TGI (SR leukemia) | GI50 (HOP-62 NSCLC) | TGI (HOP-62 NSCLC)
1 | O=C(/C=C/c1ccco1)Nc1ncc(Cc2cc(Cl)ccc2Cl)s1 | 1.03 µM | > 100 µM | 0.061 µM | > 100 µM | 0.208 µM | > 100 µM | 0.0585 µM | > 100 µM | 0.157 µM | > 100 µM | 0.255 µM | > 100 µM | 0.0699 µM | > 100 µM | 0.0487 µM | > 100 µM | 0.0385 µM | > 100 µM | 0.0645 µM | > 76.5 µM
2 | O=C(NOCCO)c1ccc2cncn2c1Nc1ccc(I)cc1F | > 10 µM and 4.29 µM | > 100 µM | > 10 µM and 35.1 µM | > 100 µM | 0.00299 µM and < 0.01 µM |  | > 10 µM and 1.99 µM | > 100 µM | 0.0343 µM and 0.0283 µM | > 100 µM | > 10 µM and 51.1 µM | > 100 µM | > 10 µM and 27.1 µM | > 100 µM | 0.00255 µM and < 0.01 µM | 0.0343 µM and 0.0433 µM | > 10 µM and 19.1 µM | > 100 µM | 0.0159 µM and < 0.0182 µM | > 71.4 µM
3 | CSc1ccc(-c2cn3ccsc3n2)cc1 | 9.15 µM | > 100 µM | 5.48 µM | > 100 µM | 20.9 µM | > 100 µM | 43.5 µM | > 100 µM | 31.8 µM | > 100 µM | 8.53 µM | > 100 µM | 32.3 µM | > 100 µM | 25.7 µM | > 100 µM | 1.25 µM | > 60.8 µM | 34.6 µM | > 100 µM
4 | CCOC(=O)c1c(CN2CCCCC2)nc2ccc(Cl)cc2c1-c1ccccc1 | 37.7 µM | > 100 µM | 6.5 µM | 27.9 µM | 19.1 µM | 35.8 µM | 21.8 µM | 48.4 µM | 15.9 µM | 35 µM | 17.1 µM | 49.1 µM | 19.2 µM | 41.8 µM | 17.2 µM | 38.1 µM | 15.7 µM | 43.4 µM | 23.9 µM | 56.5 µM
5 | O=C1OC(c2ccccc2)=N/C1=C\c1ccccc1 |  | > 100 µM |  | 85.5 µM and > 100 µM |  | > 100 µM |  | > 100 µM |  | > 100 µM |  | > 100 µM | 44.6 µM and > 100 µM | > 100 µM |  | > 100 µM |  | 73.4 µM and > 100 µM |  | > 100 µM and 73.5 µM
6 | CC[C@H](C)[C@H](NC(=O)CN(C)C)C(=O)N(C)[C@H](C[C@@H](OC(C)=O)c1nc(C(=O)NC23C4C5C2C2C3C4C52C(=O)OC)cs1)C(C)C (some centres not stated) | 2.81 µM | > 33.2 µM | 0.252 µM | > 33.2 µM | 0.631 µM | > 33.2 µM | 1.31 µM | > 33.2 µM | 0.352 µM | 4.62 µM | > 33.2 µM | > 33.2 µM | 0.79 µM | > 33.2 µM | 0.19 µM | > 33.2 µM | 0.038 µM | > 33.2 µM |  | > 33.2 µM
7 | COC(=O)c1sc(-n2cnc3cc(OC)c(OC)cc32)cc1OCc1ccccc1C(F)(F)F | > 25 µM | > 25 µM | > 25 µM | > 25 µM | > 25 µM | > 25 µM | 24.9 µM | > 25 µM | 5.79 µM | > 25 µM | > 25 µM | > 25 µM | 10.8 µM | > 25 µM | > 25 µM | > 25 µM | > 25 µM | > 25 µM | 9.22 µM | > 25 µM
8 | NS(=O)(=O)c1cccc(Nc2cc(-c3ccc(F)cc3)[nH]n2)c1 | > 22 µM | > 25 µM | > 25 µM | > 25 µM | > 25 µM | > 25 µM | > 25 µM | > 25 µM | > 25 µM | > 25 µM | > 23.3 µM | > 25 µM | 23.2 µM | > 25 µM | > 21.1 µM | > 25 µM | 12.5 µM | > 25 µM | > 25 µM | > 25 µM
9 | CC(C)(C)n1cc(-c2ccnc(NCCCNS(=O)(=O)c3cccc4ccccc34)c2)c(-c2cccc(O)c2)n1 | 1.92 µM | 4.75 µM | 2 µM | 5.5 µM | 1.87 µM | 3.37 µM | 2.63 µM | 7.21 µM | 2.32 µM | 5.64 µM | 2.22 µM | 6.18 µM | 2.09 µM | 5.12 µM | 1.67 µM | 3.28 µM | 1.4 µM | 5.65 µM |  | 
10 | COc1cc([C@H]2OC[C@@H]3C(c4cc(OC)c5c(c4)OCO5)OC[C@H]23)cc(OC)c1OC (some centres not stated) |  | > 100 µM |  | > 100 µM |  | > 100 µM |  | > 100 µM |  | > 100 µM |  | > 100 µM |  | > 100 µM |  | > 100 µM |  | > 100 µM |  | > 100 µM
11 | COc1cc(C(=O)/C=C/c2c[nH]c3ccccc23)cc(OC)c1OC | 0.684 µM | 43.1 µM | 0.0473 µM | 15.6 µM | 0.0959 µM | 7.59 µM | 0.0342 µM | > 57.3 µM | 0.132 µM | 12.4 µM | 0.0393 µM | 18.4 µM | < 0.0223 µM | > 33.9 µM | < 0.01 µM | 15.7 µM | < 0.01 µM | 13.8 µM | 0.0212 µM | 29 µM
12 | COc1cc(F)c(F)c(Nc2ccc(I)cc2F)c1NS(=O)(=O)C1(CC(O)CO)CC1 (configuration not stated) | 16.6 µM | > 91.9 µM | 15.2 µM | 52.3 µM | 10.8 µM | 25.5 µM | 11 µM | 50.1 µM | 11 µM | 27.3 µM | 15.7 µM | > 75.5 µM | 16.8 µM | 38.7 µM | 1.96 µM | 9.81 µM | 15.7 µM | > 69.4 µM | 14 µM | 32.4 µM
